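Results reflect a 48-hour exposure of cells in 96-well plates to compound at five concentrations. GI50 is the concentration that inhibits growth by half.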 The source made the active and inactive calls. Cut-off read from the data, not from the text of the source: active = GI50 up to about 1.1 µM and inactive = higher.
How the values were obtained:
Experiment in all cases: inhibition of tumour cell growth, NCI panel, 48 h
OVCAR-4 = tested on: OVCAR-4
SF-539 = tested on: SF-539
MDA-MB-435 = tested on: MDA-MB-435
M14 = tested on: M14
RPMI-8226 = tested on: RPMI-8226
EKVX = tested on: EKVX
HCT-116 = tested on: HCT-116
HOP-62 = tested on: HOP-62
SR = tested on: SR
Hs-578T = tested on: Hs-578T
A549 = tested on: A549
DU-145 = tested on: DU-145
MCF7 = tested on: MCF7
MDA-N = tested on: MDA-N
OVCAR-3 = tested on: OVCAR-3
SF-268 = tested on: SF-268
K562 = tested on: K562
T47D = tested on: T47D
UACC-62 = tested on: UACC-62
SK-MEL-5 = tested on: SK-MEL-5
NCI/ADR-RES = tested on: NCI/ADR-RES
HL-60 = tested on: HL-60
SNB-19 = tested on: SNB-19
SK-MEL-2 = tested on: SK-MEL-2
HCC 2998 = tested on: HCC 2998
CCRF-CEM = tested on: CCRF-CEM
SNB-75 = tested on: SNB-75
ACHN = tested on: ACHN
U-251 = tested on: U-251
IGROV-1 = tested on: IGROV-1
BT-549 = tested on: BT-549
SK-OV-3 = tested on: SK-OV-3
MOLT-4 = tested on: MOLT-4
A498 = tested on: A498
HCT-15 = tested on: HCT-15
NCI-H226 = tested on: NCI-H226
CAKI-1 = tested on: CAKI-1
OVCAR-8 = tested on: OVCAR-8
UO-31 = tested on: UO-31
NCI-H460 = tested on: NCI-H460
UACC-257 = tested on: UACC-257
PC-3 = tested on: PC-3
RXF 393 = tested on: RXF 393
NCI-H23 = tested on: NCI-H23
SW-620 = tested on: SW-620
COLO 205 = tested on: COLO 205
SF-295 = tested on: SF-295
HOP-92 = tested on: HOP-92
NCI-H522 = tested on: NCI-H522
SK-MEL-28 = tested on: SK-MEL-28
HT-29 = tested on: HT-29
TK-10 = tested on: TK-10
KM12 = tested on: KM12
LOX IMVI = tested on: LOX IMVI
SN12C = tested on: SN12C
OVCAR-5 = tested on: OVCAR-5
MDA-MB-231 = tested on: MDA-MB-231
786-0 = tested on: 786-0
Malme-3M = tested on: Malme-3M
SNB-78 = tested on: SNB-78
LXFL 529 = tested on: LXFL 529
DMS-114 = tested on: DMS-114
KM-20L2 = tested on: KM-20L2

Q: What does the source list for `N#Cc1cc2cc3c4c(c2oc1=O)CCCN4CCC3`?
A: GI50 (OVCAR-4): > 100 µM (inactive); GI50 (SF-539): > 100 µM (inactive); GI50 (MDA-MB-435): > 100 µM (inactive); GI50 (M14): > 100 µM (inactive); GI50 (RPMI-8226): > 100 µM (inactive); GI50 (EKVX): 5.02 µM (inactive); GI50 (HCT-116): > 100 µM (inactive); GI50 (HOP-62): > 100 µM (inactive); GI50 (SR): > 100 µM (inactive); GI50 (Hs-578T): > 100 µM (inactive); GI50 (A549): > 100 µM (inactive); GI50 (DU-145): > 100 µM (inactive); GI50 (MCF7): > 100 µM (inactive); GI50 (MDA-N): > 100 µM (inactive); GI50 (OVCAR-3): > 100 µM (inactive); GI50 (SF-268): > 100 µM (inactive); GI50 (K562): > 100 µM (inactive); GI50 (T47D): > 100 µM (inactive); GI50 (UACC-62): > 100 µM (inactive); GI50 (SK-MEL-5): > 100 µM (inactive); GI50 (NCI/ADR-RES): > 100 µM (inactive); GI50 (HL-60): > 100 µM (inactive); GI50 (SNB-19): > 100 µM (inactive); GI50 (SK-MEL-2): > 100 µM (inactive); GI50 (HCC 2998): > 100 µM (inactive); GI50 (CCRF-CEM): > 100 µM (inactive); GI50 (SNB-75): > 76.4 µM (inactive); GI50 (ACHN): > 100 µM (inactive); GI50 (U-251): > 100 µM (inactive); GI50 (IGROV-1): > 100 µM (inactive); GI50 (BT-549): > 100 µM (inactive); GI50 (SK-OV-3): > 100 µM (inactive); GI50 (MOLT-4): > 100 µM (inactive); GI50 (A498): > 100 µM (inactive); GI50 (HCT-15): > 100 µM; GI50 (NCI-H226): > 100 µM (inactive); GI50 (CAKI-1): > 100 µM (inactive); GI50 (OVCAR-8): > 100 µM (inactive); GI50 (UO-31): > 100 µM (inactive); GI50 (NCI-H460): > 100 µM (inactive); GI50 (UACC-257): > 100 µM (inactive); GI50 (PC-3): > 100 µM (inactive); GI50 (RXF 393): > 100 µM (inactive); GI50 (NCI-H23): > 100 µM (inactive); GI50 (SW-620): > 100 µM (inactive); GI50 (COLO 205): > 100 µM (inactive); GI50 (SF-295): > 100 µM (inactive); GI50 (HOP-92): > 100 µM (inactive); GI50 (NCI-H522): > 100 µM (inactive); GI50 (SK-MEL-28): > 100 µM (inactive); GI50 (HT-29): > 100 µM (inactive); GI50 (TK-10): > 100 µM (inactive); GI50 (KM12): > 100 µM (inactive); GI50 (LOX IMVI): > 100 µM (inactive); GI50 (SN12C): > 100 µM (inactive); GI50 (OVCAR-5): > 100 µM (inactive); GI50 (MDA-MB-231): > 100 µM (inactive); GI50 (786-0): > 100 µM (inactive)

Q: Which results are given for `O=S(=O)(CC#CCS(=O)(=O)c1ccccc1)c1ccccc1`?
A: GI50 (OVCAR-4): 1.84 µM (inactive); GI50 (SF-539): 2.48 µM (inactive); GI50 (MDA-MB-435): 1.72 µM (inactive); GI50 (M14): 1.86 µM (inactive); GI50 (RPMI-8226): 1.23 µM (inactive); GI50 (Malme-3M): 1.9 µM (inactive); GI50 (EKVX): 5.09 µM (inactive); GI50 (HCT-116): 1.01 µM (active); GI50 (HOP-62): 5.71 µM (inactive); GI50 (SR): 2.66 µM (inactive); GI50 (Hs-578T): 5.14 µM (inactive); GI50 (A549): 19.1 µM (inactive); GI50 (DU-145): 4.91 µM (inactive); GI50 (MCF7): 1.99 µM (inactive); GI50 (MDA-N): 1.77 µM (inactive); GI50 (OVCAR-3): 1.55 µM (inactive); GI50 (SF-268): 4.35 µM (inactive); GI50 (K562): 1.58 µM (inactive); GI50 (T47D): 1.95 µM (inactive); GI50 (UACC-62): 3.55 µM (inactive); GI50 (SK-MEL-5): 4.9 µM (inactive); GI50 (NCI/ADR-RES): 3.72 µM (inactive); GI50 (HL-60): 3.1 µM (inactive); GI50 (SNB-19): 16.3 µM (inactive); GI50 (SK-MEL-2): 5.69 µM (inactive); GI50 (HCC 2998): 18.7 µM (inactive); GI50 (CCRF-CEM): 0.0982 µM (active); GI50 (SNB-75): 1.48 µM (inactive); GI50 (ACHN): 1.79 µM (inactive); GI50 (U-251): 8.55 µM (inactive); GI50 (IGROV-1): 1.44 µM (inactive); GI50 (BT-549): 3.13 µM (inactive); GI50 (SK-OV-3): 13.4 µM (inactive); GI50 (MOLT-4): 0.959 µM (active); GI50 (A498): 16.1 µM (inactive); GI50 (HCT-15): 1.35 µM; GI50 (NCI-H226): 14.6 µM (inactive); GI50 (CAKI-1): 1.77 µM (inactive); GI50 (OVCAR-8): 1.76 µM (inactive); GI50 (UO-31): 1.42 µM (inactive); GI50 (NCI-H460): 12.6 µM (inactive); GI50 (UACC-257): 4.32 µM (inactive); GI50 (PC-3): 7.45 µM (inactive); GI50 (RXF 393): 1.67 µM (inactive); GI50 (NCI-H23): 2.98 µM (inactive); GI50 (SW-620): 0.891 µM (active); GI50 (COLO 205): 1.95 µM (inactive); GI50 (SF-295): 18.5 µM (inactive); GI50 (HOP-92): 1.61 µM (inactive); GI50 (NCI-H522): 0.659 µM (active); GI50 (SK-MEL-28): 7.46 µM (inactive); GI50 (HT-29): 6.68 µM (inactive); GI50 (TK-10): 2.72 µM (inactive); GI50 (KM12): 12.4 µM (inactive); GI50 (LOX IMVI): 1.51 µM (inactive); GI50 (SN12C): 4.28 µM (inactive); GI50 (OVCAR-5): 4.63 µM (inactive); GI50 (MDA-MB-231): 11.6 µM (inactive); GI50 (786-0): 0.973 µM (active)

Q: Which results are given for `COc1ccc(OC)c2c1CC(C(=O)O)(C(=O)O)CC2=O`?
A: GI50 (OVCAR-4): > 100 µM (inactive); GI50 (SNB-78): > 100 µM (inactive); GI50 (M14): > 100 µM (inactive); GI50 (Malme-3M): > 100 µM (inactive); GI50 (EKVX): > 100 µM (inactive); GI50 (HCT-116): > 100 µM (inactive); GI50 (HOP-62): > 100 µM (inactive); GI50 (LXFL 529): > 100 µM (inactive); GI50 (A549): > 100 µM (inactive); GI50 (OVCAR-3): > 100 µM (inactive); GI50 (SF-268): > 100 µM (inactive); GI50 (K562): > 100 µM (inactive); GI50 (UACC-62): > 100 µM (inactive); GI50 (SK-MEL-5): > 100 µM (inactive); GI50 (HL-60): > 100 µM (inactive); GI50 (SNB-19): > 100 µM (inactive); GI50 (SK-MEL-2): > 100 µM (inactive); GI50 (HCC 2998): > 100 µM (inactive); GI50 (SNB-75): > 100 µM (inactive); GI50 (ACHN): > 100 µM (inactive); GI50 (U-251): > 100 µM (inactive); GI50 (IGROV-1): > 100 µM (inactive); GI50 (SK-OV-3): > 100 µM (inactive); GI50 (MOLT-4): > 100 µM (inactive); GI50 (HCT-15): > 100 µM; GI50 (NCI-H226): > 100 µM (inactive); GI50 (CAKI-1): > 100 µM (inactive); GI50 (UO-31): > 100 µM (inactive); GI50 (DMS-114): > 100 µM (inactive); GI50 (RXF 393): > 100 µM (inactive); GI50 (NCI-H23): > 100 µM (inactive); GI50 (SW-620): > 100 µM (inactive); GI50 (HOP-92): > 100 µM (inactive); GI50 (SK-MEL-28): > 100 µM (inactive); GI50 (TK-10): > 100 µM (inactive); GI50 (KM12): > 100 µM (inactive); GI50 (LOX IMVI): > 100 µM (inactive); GI50 (SN12C): > 100 µM (inactive); GI50 (OVCAR-5): > 100 µM (inactive); GI50 (KM-20L2): > 100 µM (inactive); GI50 (786-0): > 100 µM (inactive)

— ChEMBL document CHEMBL1201862, “PubChem BioAssay data set” (2004)
